Measured values as given in patent publication US8633184B2, “Benzoazepin-oxy-acetic acid derivatives as PPAR-delta agonists used for the increase of HDL-C, lower LDL-C and lower cholesterol” (Janssen Pharmaceutica N.V., priority 2006, dated 2014).
pEC50: −log10 of the molar value. Several values for one entry are separate records, joined by “and”; a condition that tells them apart may be missing. Equal values may be shown once. Read-outs that look alike come from different tables or passages of the source.

Legend:
PPARδ = target: T1, PPARδ (Homo sapiens, UniProt Q03181); assay: Transfection assay, GAL4-PPARδ LBD luciferase reporter in HEK293 cells; assay type: cell-based; settings: 18-24 hrs
T1 construct: expressed in transfected cells; host or cells: HEK293
T1 sequence (Q03181 211-439 limits assumed): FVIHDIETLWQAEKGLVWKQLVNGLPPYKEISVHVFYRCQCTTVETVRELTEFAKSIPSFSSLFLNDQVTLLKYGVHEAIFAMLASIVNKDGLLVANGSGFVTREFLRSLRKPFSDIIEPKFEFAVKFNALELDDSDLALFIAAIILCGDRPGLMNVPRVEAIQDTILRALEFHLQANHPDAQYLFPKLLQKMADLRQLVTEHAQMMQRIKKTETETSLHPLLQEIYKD
Method: (§1) HEK293 cells were grown in DMEM/F12 medium supplemented with 10% FBS and glutamine (Invitrogen) and incubated in a 5% CO2 incubator at 37° C. The cells were co-transfected using DMRIE-C reagent (Invitrogen) in serum free medium (Opti-MEM, Invitrogen) with two mammalian expression plasmids, one containing the DNA sequence coding for the ligand binding domains of either PPARα, γ or δ fused to the yeast GAL4 DNA binding domain and the other containing the promoter sequence of the yeast GAL4 (UAS) fused to the firefly luciferase cDNA reporter. The next day, the medium was changed to DMEM/F12 medium supplemented with 5% charcoal treated serum (Hyclone) and glutamine. After 6 hrs the cells were trypsinized and seeded at a density of 50,000 cells/well into 96 well plates and incubated overnight as above. The cells were then treated with test compounds or vehicle and incubated for 18-24 hrs as above. Luciferase reporter activity was measured using the Steady-Glo Luciferase Assay Kit from Promega. DMRIE-C Reagent was purchased from GIBCO Cat. No. 10459-014. OPTI-MEM I Reduced Serum Medium was purchased from GIBCO (Cat. No. 31985). Steady-Glo Luciferase Assay Kit was purchased from Promega (Part #E254B).
(§2) A variety of example compounds have been made and tested, with a range of in vitro results. Below, in Table 2, are representative compounds and data; in some cases, where multiple EC50's are shown, multiple measurements were taken. Naturally, different compounds in Formula (I) may have not activities identical to any one compound below.

PPARγ = target: T2, PPARγ (Homo sapiens, UniProt P37231); assay: Transfection assay, GAL4-PPARγ LBD luciferase reporter in HEK293 cells; assay type: cell-based; settings: 18-24 hrs
T2 construct: expressed in transfected cells; host or cells: HEK293
T2 sequence (P37231 238-503 limits assumed): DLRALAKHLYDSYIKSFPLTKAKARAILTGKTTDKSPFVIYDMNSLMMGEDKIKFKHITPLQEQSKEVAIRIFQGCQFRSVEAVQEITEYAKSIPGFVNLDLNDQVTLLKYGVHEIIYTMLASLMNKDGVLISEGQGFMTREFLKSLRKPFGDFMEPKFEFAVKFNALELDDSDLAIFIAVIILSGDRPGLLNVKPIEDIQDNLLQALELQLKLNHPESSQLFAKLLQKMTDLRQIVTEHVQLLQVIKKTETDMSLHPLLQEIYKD
Method: as §1, §2

PPARα = target: T3, PPARα (Homo sapiens, UniProt Q07869); assay: Transfection assay, GAL4-PPARα LBD luciferase reporter in HEK293 cells; assay type: cell-based; settings: 18-24 hrs
T3 construct: expressed in transfected cells; host or cells: HEK293
T3 sequence (Q07869 239-466 limits assumed): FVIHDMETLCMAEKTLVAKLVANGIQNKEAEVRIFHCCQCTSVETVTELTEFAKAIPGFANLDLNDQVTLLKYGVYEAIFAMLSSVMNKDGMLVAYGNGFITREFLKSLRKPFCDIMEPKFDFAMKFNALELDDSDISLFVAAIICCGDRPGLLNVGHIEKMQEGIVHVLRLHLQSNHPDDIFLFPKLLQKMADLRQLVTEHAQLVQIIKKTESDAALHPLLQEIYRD
Method: as §1, §2

[1] = system: Sprague Dawley rats fed a diet high in cholesterol; assay: Rat study: high cholesterol diet, serum lipids and liver weights after 8 days treatment; assay type: in vivo; settings: for HDL-C / LDL-C / Total Cholesterol / Triglycerides / Liver Weights: 8 days
Excerpt: (§3) Rats carry the majority of serum cholesterol in the HDL lipoprotein fraction while humans carry the majority of serum cholesterol in LDL and VLDL lipoproteins. To mimic a human hypercholesterolemic state in a rodent model, Sprague Dawley rats were fed a diet high in cholesterol (Research Diets, C13002) for 6 days before treatment with the compounds for another 8 days while remaining on the diet. Under this dietary regimen, the vehicle controls (HC: High Cholesterol) typically have serum total cholesterol and LDL-C levels that are increased by 3-8 fold and serum HDL-C is decreased by approximately 30-50% compared with chow diet (lean) controls.
(§4) Compound 7 had no effect on serum triglycerides or liver weights.

[2] = Rat study: drug plasma levels (pharmacokinetics); assay type: in vivo
Excerpt: as §3, §4

[3] = Rat study: drug plasma levels (pharmacokinetics); assay type: in vivo; settings: for Cmax / half-life / AUC(0-t): Sprague Dawley, plasma

## O=C(O)COc1ccc2c(c1)CCN(Cc1ccc(-c3ccc(C(F)(F)F)cc3)s1)CC2 [compound 7]
PPARδ
  pEC50: 7.84 and 7.72
PPARγ
  pEC50: < 5.52
PPARα
  pEC50: < 5.52
[1]; 0.1 mg/kg
  HDL-C: 24.2 ± 2.9 mg/dL
  LDL-C: 32.7 ± 4.7 mg/dL
  Total Cholesterol: 239.0 ± 22.4 mg/dL
  Triglycerides: 269.8 ± 27.8 mg/dL
[1]; 0.3 mg/kg
  HDL-C: 29.6 ± 1.4 mg/dL
  LDL-C: 31.2 ± 1.5 mg/dL
  Liver Weights: 25.0 ± 0.8
  Total Cholesterol: 233.2 ± 9.5 mg/dL
  Triglycerides: 264.7 ± 29.8 mg/dL
[1]; 1 mg/kg
  HDL-C: 31.8 ± 0.9 mg/dL
  LDL-C: 24.4 ± 1.3 mg/dL
  Liver Weights: 23.9 ± 0.5
  Total Cholesterol: 173.3 ± 7.9 mg/dL
  Triglycerides: 237.7 ± 25.4 mg/dL
[1]; 3 mg/kg
  HDL-C: 39.6 ± 1.6 mg/dL
  LDL-C: 20.6 ± 1.5 mg/dL
  Liver Weights: 27.2 ± 0.9
  Total Cholesterol: 152.2 ± 8.5 mg/dL
  Triglycerides: 299.5 ± 35.9 mg/dL
[1]; 8 days treatment
  LDL-C levels (effect in words): significant decreases
  liver weights (effect in words): no effect
  serum total cholesterol levels (effect in words): significant decreases
  serum triglycerides (effect in words): no effect
[1]; 8 days treatment, achieving the levels of the chow fed controls
  HDL-C levels (effect in words): significantly increased
[2]
  drug plasma levels (Cmax and AUC), in words: dose-related increases
[2]; Dose 0.1, Multiple, n = 2
  Tmax: 2.5 h
[2]; Dose 0.3, Multiple
  Tmax: 3 h
[2]; Dose 1, Multiple, n = 2
  Tmax: 4 h
[2]; Dose 3, Single, n = 2
  Tmax: 5.5 h
[2]; Sprague Dawley, plasma, 0.1 mg/kg, Dose 0.1, Multiple, n = 2, read-out: AUC0-24
  AUC(0-t): 772 ng·h/mL
[2]; Sprague Dawley, plasma, 0.3 mg/kg, Dose 0.3, Multiple, read-out: t½
  half-life: ~22 h
[2]; Sprague Dawley, plasma, 3 mg/kg, Dose 3, Multiple, read-out: AUC0-24
  AUC(0-t): 37100 ng·h/mL
[3]; Dose 3, Multiple
  Tmax: 5 h
[3]; 0.1 mg/kg, Dose 0.1, Multiple, n = 2
  Cmax: 57 ng/mL
[3]; 0.1 mg/kg, Dose 0.1, Multiple, n = 2, read-out: t½
  half-life: ~13 h
[3]; 0.3 mg/kg, Dose 0.3, Multiple
  Cmax: 124 ng/mL
[3]; 0.3 mg/kg, Dose 0.3, Multiple, read-out: AUC0-24
  AUC(0-t): 1640 ng·h/mL
[3]; 1 mg/kg, Dose 1, Multiple, n = 2
  Cmax: 595 ng/mL
[3]; 1 mg/kg, Dose 1, Multiple, n = 2, read-out: AUC0-24
  AUC(0-t): 10900 ng·h/mL
[3]; 3 mg/kg, Dose 3, Multiple
  Cmax: 2030 ng/mL
[3]; 3 mg/kg, Dose 3, Multiple, read-out: t½
  half-life: ~36 h
[3]; 3 mg/kg, Dose 3, Single, n = 2
  Cmax: 733 ng/mL
[3]; 3 mg/kg, Dose 3, Single, n = 2, read-out: AUC0-24
  AUC(0-t): 14200 ng·h/mL
[3]; 3 mg/kg, Dose 3, Single, n = 2, read-out: t½
  half-life: ~29 h
